According to patent publication US20220257592A1, “METHODS OF TREATING CANCER” (HOFFMANN-LA ROCHE INC., priority 2019, published 2022):

Assay: Clinical trial safety, ALKA, STARTRK-1, STARTRK-2, STARTRK-NG (interim, N=355)
Conditions: for Balance disorder / Confusional state / Dizziness / Headache / Paresthesia: CNS metastases
[1] = no prior CNS irradiation (N=48)
[2] = among the 32 patients with hyperuricemic adverse reactions
[3] = among the 36 patients with mood disorders
[4] = among the 51 patients with sleep disturbances
[5] = among the 96 patients with cognitive impairment
[6] = among the 136 patients who experienced dizziness
[7] = clinically relevant adverse reactions in ≤10% of patients

CN1CCN(c2ccc(C(=O)Nc3n[nH]c4ccc(Cc5cc(F)cc(F)c5)cc34)c(NC3CCOCC3)c2)CC1 [Entrectinib, N-[5-(3,5-difluorobenzyl)-1H-indazol-3-yl]-4-(4-methyl-piperazin-1-yl)-2-(tetrahydro-pyran-4-ylamino)-benzamide]
CHF, median time to onset (12 patients with CHF, range: 11 days to 12 months): 2 months
Congestive heart failure (355 patients): 3.4%
Congestive heart failure, Grade 3 (355 patients): 2.3%
Hyperuricemia reported as adverse reactions with symptoms, as well as elevated uric acid levels (355 patients): 9%
Increased ALT of any grade (355 patients): 36%
Increased AST of any grade (355 patients): 42%
Balance disorder [1]: 4%
Confusional state [1]: 2%
Dizziness [1]: 31%
Headache [1]: 13%
Paresthesia [1]: 6%
Balance disorder (prior CNS irradiation (N=90)): 13%
Confusional state (prior CNS irradiation (N=90)): 11%
Dizziness (prior CNS irradiation (N=90)): 38%
Headache (prior CNS irradiation (N=90)): 21%
Paresthesia (prior CNS irradiation (N=90)): 20%
Abdominal pain, All Grades (N = 355): 16%
Arthralgia, All Grades (N = 355): 21%
Ataxia, All Grades (N = 355): 17%
Back pain, All Grades (N = 355): 12%
Cognitive impairment, All Grades (N = 355): 27%
Constipation, All Grades (N = 355): 46%
Cough, All Grades (N = 355): 24%
Decreased appetite, All Grades (N = 355): 13%
Dehydration, All Grades (N = 355): 10%
Diarrhea, All Grades (N = 355): 35%
Dizziness, All Grades (N = 355): 38%
Dysesthesia, All Grades (N = 355): 34%
Dysgeusia, All Grades (N = 355): 44%
Dyspnea, All Grades (N = 355): 30%
Edema, All Grades (N = 355): 40%
Fatigue, All Grades (N = 355): 48%
Headache, All Grades (N = 355): 18%
Hypotension, All Grades (N = 355): 18%
Increased weight, All Grades (N = 355): 25%
Lung infection, All Grades (N = 355): 10%
Mood disorders, All Grades (N = 355): 10%
Muscular weakness, All Grades (N = 355): 12%
Myalgia, All Grades (N = 355): 28%
Nausea, All Grades (N = 355): 34%
Pain in extremity, All Grades (N = 355): 11%
Peripheral sensory neuropathy, All Grades (N = 355): 18%
Pyrexia, All Grades (N = 355): 21%
Rash, All Grades (N = 355): 11%
Sleep (sleep disturbances), All Grades (N = 355): 14%
Urinary tract infection, All Grades (N = 355): 13%
Vision disorders, All Grades (N = 355): 21%
Vomiting, All Grades (N = 355): 24%
Abdominal pain, Grade ≥3 (N = 355, Grades 3-5): 0.6%
Arthralgia, Grade ≥3 (N = 355, Grades 3-5): 0.6%
Ataxia, Grade ≥3 (N = 355, Grades 3-5): 0.8%
Back pain, Grade ≥3 (N = 355, Grades 3-5): 1%
Cognitive impairment, Grade ≥3 (N = 355, Grades 3-5): 4.5%
Constipation, Grade ≥3 (N = 355, Grades 3-5): 0.6%
Cough, Grade ≥3 (N = 355, Grades 3-5): 0.3%
Decreased appetite, Grade ≥3 (N = 355, Grades 3-5): 0.3%
Dehydration, Grade ≥3 (N = 355, Grades 3-5): 1.1%
Diarrhea, Grade ≥3 (N = 355, Grades 3-5): 2.0%
Dizziness, Grade ≥3 (N = 355, Grades 3-5): 0.8%
Dysesthesia, Grade ≥3 (N = 355, Grades 3-5): 0.3%
Dysgeusia, Grade ≥3 (N = 355, Grades 3-5): 0.3%
Edema, Grade ≥3 (N = 355, Grades 3-5): 1.1%
Fatigue, Grade ≥3 (N = 355, Grades 3-5): 5%
Headache, Grade ≥3 (N = 355, Grades 3-5): 0.3%
Hypotension, Grade ≥3 (N = 355, Grades 3-5): 2.8%
Increased weight, Grade ≥3 (N = 355, Grades 3-5): 7%
Mood disorders, Grade ≥3 (N = 355, Grades 3-5): 0.6%
Muscular weakness, Grade ≥3 (N = 355, Grades 3-5): 0.8%
Myalgia, Grade ≥3 (N = 355, Grades 3-5): 1.1%
Nausea, Grade ≥3 (N = 355, Grades 3-5): 0.3%
Pain in extremity, Grade ≥3 (N = 355, Grades 3-5): 0.3%
Peripheral sensory neuropathy, Grade ≥3 (N = 355, Grades 3-5): 1.1%
Pyrexia, Grade ≥3 (N = 355, Grades 3-5): 0.8%
Rash, Grade ≥3 (N = 355, Grades 3-5): 0.8%
Sleep (sleep disturbances), Grade ≥3 (N = 355, Grades 3-5): 0.6%
Urinary tract infection, Grade ≥3 (N = 355, Grades 3-5): 2.3%
Vision disorders, Grade ≥3 (N = 355, Grades 3-5): 0.8%
Vomiting, Grade ≥3 (N = 355, Grades 3-5): 0.8%
CHF resolved following interruption or discontinuation and medical management (among the 12 patients with CHF): 50%
entrectinib discontinued due to CHF (among the 12 patients with CHF): 17%
entrectinib interrupted due to CHF (among the 12 patients with CHF): 50%
Dose interruption due to hyperuricemia [2]: 6%
Dose reduction due to hyperuricemia [2]: 6%
Required urate-lowering medication [2]: 34%
Discontinuation due to mood disorders [3]: no patients discontinued
Dose interruption due to mood disorders [3]: 6%
Dose reduction due to mood disorders [3]: 6%
Discontinuation due to sleep disturbances [4]: no patients discontinued
Dose reduction due to sleep disturbances [4]: 6%
Discontinued entrectinib due to cognitive adverse reactions [5]: 1%
Dose interruption due to cognitive adverse reactions [5]: 18%
Dose reduction due to cognitive adverse reactions [5]: 13%
Discontinued entrectinib due to dizziness [6]: 0.7%
Dose interruption due to dizziness [6]: 7%
Dose reduction due to dizziness [6]: Ten
Grade 3 dizziness [6]: 2.2%
Dysphagia [7]: 10%
Fall [7]: 8%
Fractures [7]: 6%
Hypoxia [7]: 4.2%
Pleural effusion [7]: 8%
Pulmonary embolism [7]: 3.9%
QT prolongation [7]: 3.1%
Syncope [7]: 3.9%
Increased AST or ALT leading to dose interruptions (first value of 'respectively'): 0.8%
Cognitive impairment: amnesia (human, in vivo): 2.5%
Cognitive impairment: aphasia (human, in vivo): 2.3%
Cognitive impairment: cognitive disorders (human, in vivo): 8%
Cognitive impairment: confusional state (human, in vivo): 7%
Cognitive impairment: delirium (human, in vivo): 0.8%
Cognitive impairment: disturbance in attention (human, in vivo): 4.8%
Cognitive impairment: hallucinations (human, in vivo): 1.1%
Cognitive impairment: memory impairment (human, in vivo): 3.7%
